Laboratory results from ChEMBL document CHEMBL1201862, “PubChem BioAssay data set” (2004).
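A five-concentration, 48-hour dose response in 96-well plates underlies each endpoint, interpolated linearly between surrounding concentrations. The concentration for 50% growth inhibition is given as GI50.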 Active and inactive are the calls of the source. Rule as the data show it: active = GI50 up to about 1.1 µM and inactive = higher.

Key:
Assay in all cases: DTP human tumour cell line panel, 48 h
MOLT-4 = tested on: MOLT-4
UO-31 = tested on: UO-31
HOP-92 = tested on: HOP-92
Malme-3M = tested on: Malme-3M
K562 = tested on: K562
HL-60 = tested on: HL-60
M14 = tested on: M14
SK-OV-3 = tested on: SK-OV-3
UACC-257 = tested on: UACC-257
786-0 = tested on: 786-0
COLO 205 = tested on: COLO 205
RPMI-8226 = tested on: RPMI-8226
A549 = tested on: A549
OVCAR-4 = tested on: OVCAR-4
NCI-H226 = tested on: NCI-H226

Measured: GI50

Cc1cc(C)c(N)c(C)c1N
inactive: MOLT-4 > 100 µM | UO-31 > 100 µM | HOP-92 > 100 µM | Malme-3M > 100 µM | K562 > 100 µM | HL-60 > 100 µM | M14 > 100 µM | SK-OV-3 > 100 µM | UACC-257 > 100 µM | 786-0 > 100 µM | COLO 205 > 100 µM | RPMI-8226 > 100 µM | A549 > 100 µM

COc1cc2c(oc(=O)c3c4occc4cc(OC)c23)c2cccc(OCc3ccccc3)c12
inactive: MOLT-4 > 100 µM | UO-31 > 100 µM | HOP-92 > 100 µM | Malme-3M 35.6 µM | K562 > 100 µM | HL-60 65.8 µM | M14 80.2 µM | SK-OV-3 > 100 µM | UACC-257 > 100 µM | 786-0 41.4 µM | COLO 205 > 100 µM | RPMI-8226 > 100 µM | OVCAR-4 44.4 µM | NCI-H226 > 100 µM | A549 > 100 µM

COc1ccc(CCN2CCC(C#N)(c3ccc(OC)c(OC)c3)CC2)cc1OC
inactive: MOLT-4 > 100 µM | UO-31 > 100 µM | HOP-92 13.5 µM | Malme-3M > 100 µM | K562 > 100 µM | HL-60 > 100 µM | M14 > 100 µM | SK-OV-3 > 100 µM | UACC-257 > 100 µM | 786-0 > 100 µM | COLO 205 > 100 µM | RPMI-8226 > 100 µM | OVCAR-4 > 100 µM | NCI-H226 > 100 µM | A549 > 100 µM

Cc1cc(NCCCCCCCNc2cc(C)nc3cc(N)ccc23)c2ccc(N)cc2n1
inactive: MOLT-4 33.4 µM | UO-31 > 100 µM | Malme-3M 36 µM | K562 1.37 µM | HL-60 3.1 µM | M14 43 µM | SK-OV-3 40.6 µM | UACC-257 47.6 µM | 786-0 > 100 µM | COLO 205 14 µM | RPMI-8226 14.8 µM | OVCAR-4 72.3 µM | NCI-H226 20.4 µM | A549 29.9 µM

c1ccc2c(c1)n1nnnc1c1nnnn21
inactive: MOLT-4 > 100 µM | UO-31 > 100 µM | HOP-92 18.6 µM | Malme-3M > 100 µM | K562 > 100 µM | M14 > 100 µM | SK-OV-3 > 100 µM | UACC-257 > 100 µM | 786-0 83.4 µM | COLO 205 > 100 µM | RPMI-8226 > 100 µM | OVCAR-4 32.4 µM | NCI-H226 > 100 µM | A549 > 100 µM

COC(=O)CCC(NC(=S)N/N=C(\C)c1ccc[nH]1)C(=O)OC (stereo unspecified)
inactive: MOLT-4 > 100 µM | UO-31 > 100 µM | HOP-92 > 100 µM | Malme-3M > 100 µM | K562 > 100 µM | HL-60 > 100 µM | M14 > 100 µM | SK-OV-3 > 100 µM | UACC-257 > 100 µM | 786-0 > 100 µM | COLO 205 > 100 µM | OVCAR-4 > 100 µM | NCI-H226 > 100 µM | A549 > 100 µM

O=C1CCC(=O)N1Sc1ccccc1
inactive: MOLT-4 > 100 µM | UO-31 > 100 µM | HOP-92 > 100 µM | K562 > 100 µM | HL-60 > 100 µM | M14 > 100 µM | SK-OV-3 > 100 µM | UACC-257 > 100 µM | 786-0 > 100 µM | COLO 205 > 100 µM | RPMI-8226 > 100 µM | OVCAR-4 > 100 µM | A549 > 100 µM

O=c1nc2occc2cn1C1CC(O)C(CO)O1 (stereo unspecified)
inactive: MOLT-4 > 100 µM | UO-31 > 100 µM | HOP-92 > 100 µM | Malme-3M > 100 µM | K562 > 100 µM | HL-60 > 100 µM | M14 > 100 µM | SK-OV-3 > 100 µM | UACC-257 > 100 µM | 786-0 > 100 µM | COLO 205 > 100 µM | RPMI-8226 > 100 µM | OVCAR-4 > 100 µM | NCI-H226 > 100 µM | A549 > 100 µM

NC(=S)N1N=C2c3ccccc3CC[C@H]2[C@@H]1c1ccc(Cl)cc1
inactive: MOLT-4 18.9 µM | UO-31 20.8 µM | HOP-92 22.3 µM | Malme-3M 19.4 µM | K562 19.5 µM | HL-60 17.6 µM | M14 28.2 µM | SK-OV-3 36.9 µM | UACC-257 25.2 µM | 786-0 30.6 µM | COLO 205 17.9 µM | RPMI-8226 18.6 µM | OVCAR-4 30.8 µM | NCI-H226 16.7 µM | A549 30 µM

CC(=O)OC1COC(N2CCc3cc([N+](=O)[O-])ccc32)C(OC(C)=O)C1OC(C)=O (stereo unspecified)
inactive: MOLT-4 > 100 µM | UO-31 > 100 µM | HOP-92 36 µM | K562 > 100 µM | M14 > 100 µM | SK-OV-3 > 100 µM | UACC-257 > 100 µM | 786-0 > 100 µM | COLO 205 > 100 µM | RPMI-8226 > 100 µM | OVCAR-4 > 100 µM | NCI-H226 63.7 µM | A549 > 100 µM

Cn1cc(C(=O)NCCC(=N)N)cc1NC(=O)C1=[N+](C)C=C(NC(=O)c2cccc(C(=O)NC3=CC(C(=O)Nc4cc(C(=O)NCCC(=N)N)cn4C)=[N+](C)C3)c2)C1
inactive: MOLT-4 > 100 µM | UO-31 > 100 µM | HOP-92 > 100 µM | Malme-3M 24.8 µM | K562 83.8 µM | HL-60 > 100 µM | M14 > 100 µM | SK-OV-3 > 100 µM | UACC-257 93.1 µM | 786-0 37.8 µM | COLO 205 50.7 µM | RPMI-8226 > 100 µM | OVCAR-4 > 100 µM | NCI-H226 > 100 µM | A549 > 100 µM

COC(=O)c1ccc(N/C=C(/C#N)c2ccsc2)cc1
inactive: MOLT-4 > 100 µM | UO-31 14.4 µM | Malme-3M 16.8 µM | K562 > 100 µM | HL-60 > 100 µM | UACC-257 32.6 µM | 786-0 11.1 µM | COLO 205 67.1 µM | RPMI-8226 20.7 µM | NCI-H226 20.7 µM | A549 15.4 µM

O=NN(CCCl)C(=O)N[C@H]1CCCC[C@@H]1Cl
inactive: MOLT-4 32.4 µM | UO-31 > 100 µM | HOP-92 > 100 µM | Malme-3M > 100 µM | K562 55.8 µM | HL-60 19.6 µM | M14 > 100 µM | SK-OV-3 > 100 µM | 786-0 37.8 µM | COLO 205 > 100 µM | RPMI-8226 43.8 µM | OVCAR-4 > 100 µM | NCI-H226 > 100 µM | A549 61.5 µM

O=C(/C(=C\c1ccccc1)CN1CCOCC1)c1ccc(Br)cc1
inactive: MOLT-4 2.33 µM | UO-31 1.8 µM | HOP-92 5.47 µM | Malme-3M 1.78 µM | K562 1.15 µM | HL-60 1.5 µM | M14 1.78 µM | SK-OV-3 3.61 µM | UACC-257 2.59 µM | 786-0 1.57 µM | COLO 205 3.25 µM | RPMI-8226 2.43 µM | OVCAR-4 2.77 µM | NCI-H226 6.68 µM | A549 6.64 µM

N/N=C1\C(=O)N(c2ccc(Cl)c(Cl)c2)C(=O)C1C(=O)Nc1ccc(Cl)c(Cl)c1 (stereo unspecified)
inactive: MOLT-4 42.4 µM | UO-31 19.8 µM | HOP-92 48.1 µM | Malme-3M > 100 µM | K562 34.8 µM | HL-60 74.5 µM | M14 > 100 µM | UACC-257 71 µM | 786-0 89.5 µM | RPMI-8226 > 100 µM | OVCAR-4 80.4 µM | A549 42.9 µM

CC(=O)OC1(C#N)CC2OC1C1C2N1C(=O)c1ccccc1 (stereo unspecified)
inactive: MOLT-4 > 100 µM | UO-31 > 100 µM | HOP-92 > 100 µM | Malme-3M > 100 µM | K562 > 100 µM | HL-60 > 100 µM | M14 > 100 µM | SK-OV-3 > 100 µM | 786-0 > 100 µM | COLO 205 > 100 µM | RPMI-8226 > 100 µM | OVCAR-4 > 100 µM | NCI-H226 > 100 µM | A549 > 100 µM

CC(C)c1cccc(C(C)C)c1NC(=O)C(=O)CC(=O)CC(c1ccccc1)c1c(O)oc2ccccc2c1=O (stereo unspecified)
inactive: MOLT-4 > 100 µM | UO-31 > 100 µM | HOP-92 > 100 µM | Malme-3M > 100 µM | K562 > 100 µM | HL-60 > 100 µM | M14 > 100 µM | SK-OV-3 > 100 µM | UACC-257 > 100 µM | 786-0 > 100 µM | COLO 205 > 100 µM | RPMI-8226 > 100 µM | OVCAR-4 > 100 µM | A549 > 100 µM

CC(C(=O)N1C(=O)N(C(=O)C(C)C(O)c2ccccc2)C2CCCCC21)C(O)c1ccccc1 (stereo unspecified)
inactive: MOLT-4 26.2 µM | UO-31 34.6 µM | Malme-3M 57.4 µM | K562 > 10 µM | HL-60 27.7 µM | M14 79.8 µM | 786-0 > 100 µM | COLO 205 > 100 µM | RPMI-8226 34 µM | OVCAR-4 57.4 µM | A549 44.3 µM

COc1ccc(C2=C(Cl)c3cc(OC)c(OC)cc3C2OC)cc1OC (stereo unspecified)
inactive: MOLT-4 > 100 µM | UO-31 > 100 µM | HOP-92 > 100 µM | Malme-3M > 100 µM | K562 5.74 µM | HL-60 8.11 µM | M14 > 100 µM | UACC-257 > 100 µM | 786-0 11.2 µM | COLO 205 26.9 µM | RPMI-8226 23.8 µM | OVCAR-4 > 100 µM | NCI-H226 > 100 µM | A549 > 100 µM
